In PMC12926040, “ADP-ribose is a competitive inhibitor of methanol dehydrogenases from Bacillus methanolicus” (The Journal of Biological Chemistry, 2025):

What was measured:
BmMDH2 [1] = target: T1, BmMDH2 (Bacillus methanolicus, UniProt I3E949); assay: Effects of NAM, AMP and ADPR (0.3 mM each) on BmMDH2 activity; format: biochemical, Bacillus methanolicus MGA3; conditions: 3 mM NAD+, 40 mM ethanol
BmMDH2 [2] = target: T1, BmMDH2; assay: Effect of metal ions on the activity of purified BmMDH2; format: biochemical; conditions: 1 mM metal ion, on ice 1 h; 50 mM propanol, 37 °C
Protocol: As a first step, different metal ions were directly incubated with BmMDH2 to determine their impact on its activity. The purified BmMDH2 was diluted to 10 μM in glycine-NaOH buffer (100 mM, pH 9.5) containing 1 mM of various metal ions. After incubation on ice for 1 h, the enzymatic activities were measured in glycine-NaOH buffer (100 mM, pH 9.5) containing 3 mM NAD^+, 1 μM BmMDH2, 0.1 mM various metal ions and 50 mM propanol at 37 °C.
(§1) The purified BmMDH2 at 10 μM was incubated with 1 mM of various metal ions on ice for 1 h, the enzyme activities were measured using 50 mM propanol as substrate at 37 °C. The activity of BmMDH2 incubated in the absence of metal ion was taken as 100%. Data are means ± SDs of three measurements. b. The recovery activity of metal ions-free BmMDH2 replenished with various metal ions. The metal ions in BmMDH2 were chelated with EDTA. The activity of BmMDH2 with Mn^2+ replenishment was taken as 100%. Data are means ± SDs of three measurements.

[3] = system: BmMDH2 free of metal ions; assay: EDTA treatment of BmMDH2 and recovery of activity with metal ions; format: biochemical, Bacillus methanolicus MGA3
Protocol: To further characterize the specific activity of BmMDH2 containing different metal ions, the purified BmMDH2 was treated with EDTA to remove the metal ions it coordinated during expression or purification. The protein was incubated with 10 equivalents of EDTA in glycine-NaOH buffer (100 mM, pH 9.5) on the ice for 1 hour. Subsequently, the EDTA was removed from the protein using the HiTrap desalting column (Cytiva, CAT#17-1408-01). […] The BmMDH2 free of metal ions at 10 μM was incubated in glycine-NaOH buffer (100 mM, pH 9.5) containing 1 mM of various metal ions on ice for 1 h, followed by the analysis of the activity. […] Overall, the above results indicated the optimum metal ion for BmMDH2 activity was Mn^2+, which was also supplied in the rest of the research.
as §1, with “Fig. S12 The effect of metal ions on the activity of BmMDH2. a, The effect of metal ions on the activity of BmMDH2. The purified” for “The purified”

BmMDH2 [4] = target: T1, BmMDH2; assay: BmMDH2 activation by ACT, NADH formation monitored at 340 nm; format: biochemical; conditions: final NAD+ raised by 2.9 mM after […]; 42 μM/min before; 50 nM ACT
Protocol: Figure 1 ACT-catalyzed conversion of NAD^+ into a compound that activates BmMDH2.A, effect of ACT concentration on BmMDH2 activation. The formation of NADH was monitored at 340 nm, with 100 nM BmMDH2 in glycine-NaOH buffer (pH 9.5) containing 0 to 125 nM ACT, 3 mM NAD^+, 20 mM ethanol, 5 mM MgCl2 and 0.5 mM MnCl2. Data for the initial 10 min are highlighted in the right panel. Data were from a single experiment. B, effects of the following treatments on BmMDH2 activation: preincubated ACT & NAD^+ (red), preincubated ACT & BmMDH2 (blue), ultrafiltrate of preincubated ACT & NAD^+ (green), and ultrafiltrate of ACT (purple) or NAD^+ (cyan) solutions. Preincubations were performed in glycine-NaOH buffer (pH 9.5) with 5 mM MgCl2 and 0.5 mM MnCl2 at 25 °C for 30 min. Ethanol, BmMDH2, or NAD^+ was subsequently added to achieve final concentrations of 10 nM ACT, 20 mM ethanol, 3 mM NAD^+, and 200 nM BmMDH2. For ultrafiltration, preincubated samples were filtered (10 kDa cutoff, Millipore), and the flowthrough was used for activation assays. Data represent means ± SD (n = 3). C, effect of NAD^+ concentration on BmMDH2 activation. Activity was measured using 100 nM BmMDH2 in glycine-NaOH buffer (pH 9.5) with 50 nM ACT, 0 to 20 mM NAD^+, 5 mM MgCl2, and 0.5 mM MnCl2. Data were from a single experiment. D, time-course of BmMDH2 activation. Reaction were performed in 200 μl glycine-NaOH buffer (100 mM, pH 9.5) with 5 mM MgCl2, 0.5 mM MnCl2, 0.25 mM NAD^+, 0.1 μM BmMDH2, 20 mM ethanol, and 50 nM ACT. Fresh NAD^+ (4 μl, 150 mM) was added twice during the reaction. Data were from a single experiment. E, catalytic rates of BmMDH2 were calculated from the slopes of the data in panel D. Additional replicates of the experiments shown in panels A, C, and D are provided in Fig. S4. […]
The catalytic processes of MDHs were monitored by measuring NADH absorbance at 340 nm using a Tecan SPARK UV-Vis plate reader (Tecan Austria GmbH) at 25 °C. […]

[5] = Hydrolysis of NAD+ in glycine-NaOH buffer pH 9.5 at 25 °C (HPLC); format: physicochemical
Protocol: NAD^+ (3 mM) was incubated with (black) or without (blue) 10 nM ACT in glycine-NaOH buffer (pH 9.5, 5 mM MgCl2) at 25 °C for 60 min. Unincubated NAD^+ (red) served as a control. Compounds were identified via LC-MS. […] Data are presented as means ± SDs (n = 3). C, degradation of ACT-treated NAD^+ in glycine-NaOH buffer (pH 9.5) at 25 °C. ACT was removed by ultrafiltration before analysis. D, ADPR content in NAD^+ from different suppliers. […] E, schematic of the reactions during ACT incubation with NAD^+.
Fig. S5 The hydrolysis rate of NAD^+ at 25 °C. NAD^+ was dissolved in glycine-NaOH buffer (pH 9.5, 100 mM) at a concentration of 3 mM and incubated at 25 °C. Samples were withdrawn at various time intervals and analyzed by HPLC. The residual NAD^+ was quantified according to the standard curves of NAD^+.

[6] = system: NC(=O)c1ccc[n+]([C@@H]2O[C@H](COP(=O)(O)OP(=O)(O)OC[C@H]3O[C@@H](n4cnc5c(N)ncnc54)[C@H](O)[C@@H]3O)[C@@H](O)[C@H]2O)c1; assay: purified protein, by the assay type; conditions: other: in the presence of 10 nM ACT, 40 mM ethanol, pH 8.0, 25.0 °C
[7] = target: NAD-dependent methanol dehydrogenase 2 from Bacillus methanolicus MGA3 (BmMDH2) (Bacillus methanolicus MGA3); assay: crystal structure; BmMDH2 apo (2.8 Å), with ADPR (2.6 Å) and with NAD+ (2.6 Å); sitting-drop vapor diffusion at 18 °C, 30 mg/ml protein, Bis-Tris propane pH 6.0-7.0, PEG 3350
[8] = target: activator protein ACT from Bacillus methanolicus MGA3 (Nudix hydrolase, ADPRase) (Bacillus methanolicus MGA3) (UniProt Q8KP10); assay: crystal structure; apo-ACT in two conformations of loop 132-146 (2.0 and 2.4 Å); 90 mg/ml protein in 20 mM Tris-HCl pH 7.5, 150 mM NaCl; reservoir MES pH 5.2 with PEG 400, or MMT pH 5.0 with PEG 1500

T1 sequence (I3E949 entry or part of it): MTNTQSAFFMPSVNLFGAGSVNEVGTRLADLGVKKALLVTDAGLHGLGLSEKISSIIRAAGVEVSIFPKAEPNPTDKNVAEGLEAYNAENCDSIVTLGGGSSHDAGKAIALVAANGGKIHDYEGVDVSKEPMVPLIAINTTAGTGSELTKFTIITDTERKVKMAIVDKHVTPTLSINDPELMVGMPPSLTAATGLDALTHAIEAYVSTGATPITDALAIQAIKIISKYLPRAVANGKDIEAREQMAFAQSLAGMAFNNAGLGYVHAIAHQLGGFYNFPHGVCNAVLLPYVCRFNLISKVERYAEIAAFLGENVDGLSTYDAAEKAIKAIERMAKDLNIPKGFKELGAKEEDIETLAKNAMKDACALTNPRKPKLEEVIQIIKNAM

## Nc1ncnc2c1ncn2[C@@H]1O[C@H](COP(=O)(O)O)[C@@H](O)[C@H]1O [AMP]
BmMDH2 [1]
  effect on BmMDH2 activity (in words): Neither AMP nor NAM significantly influenced activation

## [Ca+2] [Ca^2+]
BmMDH2 [2]
  effect of metal ion on BmMDH2 activity: slightly decreased
[3]; 1 mM metal ion, on ice 1 h
  recovery of activity of metal-free BmMDH2: didn’t restore the activity

## [Co+2] [Co^2+]
BmMDH2 [2]
  effect of metal ion on BmMDH2 activity: significantly enhanced

## [Cu+2] [Cu^2+]
BmMDH2 [2]
  effect of metal ion on BmMDH2 activity: significantly inhibited
[3]; 1 mM metal ion, on ice 1 h
  recovery of activity of metal-free BmMDH2: didn’t restore the activity

## O=C(O)CN(CCN(CC(=O)O)CC(=O)O)CC(=O)O [EDTA, reference compound]
[3]; 10 equivalents of EDTA, pH 9.5, on ice 1 hour
  BmMDH2 activity after EDTA treatment: completely lost

## [Fe+2] [Fe^2+]
BmMDH2 [2]
  effect of metal ion on BmMDH2 activity: negligible effect

## [Mg+2] [Mg^2+]
BmMDH2 [2]
  effect of metal ion on BmMDH2 activity: slightly decreased
[3]; 1 mM metal ion, on ice 1 h
  recovery of activity of metal-free BmMDH2: didn’t restore the activity

## [Mn+2] [Mn^2+]
BmMDH2 [2]
  effect of metal ion on BmMDH2 activity: significantly enhanced
[3]; 1 mM metal ion, on ice 1 h
  activity of metal-free BmMDH2 replenished with metal ion: 1.04 ± 0.02 U/mg

## NC(=O)c1ccc[n+]([C@@H]2O[C@H](COP(=O)(O)OP(=O)(O)OC[C@H]3O[C@@H](n4cnc5c(N)ncnc54)[C@H](O)[C@@H]3O)[C@@H](O)[C@H]2O)c1 [NAD^+]
BmMDH2 [4]
  catalytic rate of activated BmMDH2 after additional NAD+ dose: 4.8 µM/min
[5]; glycine-NaOH buffer, glycine-NaOH pH 9.5, 25 °C, read-out: t1/2 of NAD+ hydrolysis (converted)
  half-life at 3 mM: 64 h
[5]; glycine-NaOH pH 9.5, 25 °C
  rate constant for NAD+ hydrolysis: 0.011 h⁻¹
[5]; glycine-NaOH pH 9.5, 60 min
  increase of ADPR and NAM on incubation of NAD+: about 40%

## NC(=O)c1cccnc1 [NAM, nicotinamide]
BmMDH2 [1]
  effect on BmMDH2 activity (in words): Neither AMP nor NAM significantly influenced activation

## [Ni+2] [Ni^2+]
BmMDH2 [2]
  effect of metal ion on BmMDH2 activity: slightly decreased

## [Zn+2] [Zn^2+]
BmMDH2 [2]
  effect of metal ion on BmMDH2 activity: significantly inhibited
[3]; 1 mM metal ion, on ice 1 h
  recovery of activity of metal-free BmMDH2: didn’t restore the activity

## BmMDH2S101G (Bacillus methanolicus MGA3; S101G)
[6]
  Km: 6.2 ± 0.8 mM

## NAD-dependent methanol dehydrogenase 2 from Bacillus methanolicus MGA3 (BmMDH2) (enzyme)
[7]
  stoichiometry N: 10

## activator protein ACT from Bacillus methanolicus MGA3 (Nudix hydrolase, ADPRase) (from UniProt Q8KP10 1-183) (enzyme)
[8]
  stoichiometry N: 2
